These results are taken from ChEMBL document CHEMBL1149498, “Uncompetitive antagonism of AMPA receptors: Mechanistic insights from studies of polyamine toxin derivatives” (J Med Chem, 2006).

In general, IC50 refers to the concentration needed to halve the response being measured. What is called Ki is the equilibrium dissociation constant of an inhibitor or competing ligand from its target.

Test [1] has as its target T1, Glutamate receptor ionotropic, AMPA (Rattus norvegicus, UniProt P19490+P19491+P19492+P19493). The test can be described thus: Antagonist activity against rat brain AMPA receptor expressed in Xenopus laevis oocyte assessed as inhibition of kainate-induced current at holding potential -80 mV by two electrode voltage clamp method. The test is classed as functional. (In two-electrode clamp one electrode senses voltage and the other passes current.)

Test [2] concerns the target T2, Glutamate receptor 1 (Rattus norvegicus, UniProt P19490). The test can be described thus: Antagonist activity against rat GluR1 flop expressed in Xenopus laevis oocyte assessed as inhibition of glutamate-induced current at holding potential -80 mV by two electrode voltage clamp method. The test is classed as functional.
Test [3] addresses T2, Glutamate receptor 1. The test can be described thus: Antagonist activity against rat GluR1 flop expressed in Xenopus laevis oocyte assessed as inhibition of glutamate-induced current at holding potential -100 mV by two electrode voltage clamp method. The test is classed as functional.
Test [4] has as its target T2, Glutamate receptor 1. The test can be described thus: Antagonist activity against rat GluR1 flop expressed in Xenopus laevis oocyte assessed as inhibition of glutamate-induced current at holding potential -60 mV by two electrode voltage clamp method. The test is classed as functional.
Test [5] deals with T1, Glutamate receptor ionotropic, AMPA. The test can be described thus: Antagonist activity against rat brain AMPA receptor expressed in Xenopus laevis oocyte assessed as inhibition of kainate-induced current by two electrode voltage clamp method at holding potential -60 mV.
Test [6] shares this target. The test can be described thus: Antagonist activity against rat brain AMPA receptor expressed in Xenopus laevis oocyte assessed as inhibition of kainate-induced current by two electrode voltage clamp method at holding potential -40 mV.
Test [7] shares this target. The test can be described thus: Antagonist activity against rat brain AMPA receptor expressed in Xenopus laevis oocyte assessed as inhibition of kainate-induced current by two electrode voltage clamp method at holding potential -100 mV.

T2 sequence (P19490 whole entry): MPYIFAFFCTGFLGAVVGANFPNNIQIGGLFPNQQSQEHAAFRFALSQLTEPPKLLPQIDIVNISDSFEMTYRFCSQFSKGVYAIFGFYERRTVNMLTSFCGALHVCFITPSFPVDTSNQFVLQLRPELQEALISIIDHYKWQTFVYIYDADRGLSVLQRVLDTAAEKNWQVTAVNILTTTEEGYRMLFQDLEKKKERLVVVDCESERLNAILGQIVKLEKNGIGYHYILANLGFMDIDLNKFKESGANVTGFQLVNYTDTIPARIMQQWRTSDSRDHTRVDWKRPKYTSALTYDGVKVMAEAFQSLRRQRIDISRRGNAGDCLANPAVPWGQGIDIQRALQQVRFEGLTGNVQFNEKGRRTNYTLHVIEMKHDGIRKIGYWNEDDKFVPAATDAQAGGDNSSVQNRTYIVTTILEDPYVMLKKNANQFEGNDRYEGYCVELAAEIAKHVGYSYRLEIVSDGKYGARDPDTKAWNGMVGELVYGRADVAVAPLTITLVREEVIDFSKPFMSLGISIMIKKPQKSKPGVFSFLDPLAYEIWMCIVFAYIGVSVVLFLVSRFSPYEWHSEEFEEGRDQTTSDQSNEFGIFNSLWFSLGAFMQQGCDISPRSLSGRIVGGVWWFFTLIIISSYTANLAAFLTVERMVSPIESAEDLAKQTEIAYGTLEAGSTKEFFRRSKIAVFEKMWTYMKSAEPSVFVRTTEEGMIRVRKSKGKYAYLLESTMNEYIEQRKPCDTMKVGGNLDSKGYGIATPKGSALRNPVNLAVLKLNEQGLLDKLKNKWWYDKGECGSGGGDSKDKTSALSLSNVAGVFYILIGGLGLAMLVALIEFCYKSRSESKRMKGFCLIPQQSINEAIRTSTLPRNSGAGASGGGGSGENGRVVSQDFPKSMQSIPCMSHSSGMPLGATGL

With `CCCC(=O)N[C@@H](Cc1ccc(O)cc1)C(=O)NCCCCCCNCCCCCN`, in test [1], the IC50 was determined as 388 nM. Moreover, the Ki at Glutamate receptor 1 [2] was 468 nM.
Take `CCCC(=O)N[C@@H](Cc1ccc(O)cc1)C(=O)NCCCCCNCCCCCCN`: the Ki was 10 nM on Glutamate receptor 1 [3], 660 nM on Glutamate receptor 1 [4] and 3 nM on Glutamate receptor 1 [2]. Besides, the IC50 in test [1] was 87 nM.
Consider `CCCC(=O)N[C@@H](Cc1ccc(O)cc1)C(=O)NCCCCCNCCCCCCCCCCN`, for which the Ki came to 26 nM at Glutamate receptor 1 [3], 1200 nM on Glutamate receptor 1 [4] and 180 nM on Glutamate receptor 1 [2].
`CCCC(=O)N[C@@H](Cc1ccc(O)cc1)C(=O)NCCCCCCCCCNCCN`: the IC50 in test [1] is 122 nM. For the same compound, the Ki on Glutamate receptor 1 [2] turned out to be 410 nM.
`CCCC(=O)N[C@@H](Cc1ccc(O)cc1)C(=O)NCCCCNCCCCCCCN`: the concentration for half-maximal inhibition (IC50) in test [5] is 60.1 nM; in test [6], 176 nM; in test [7] it was 3.3 nM; in test [1], 16 nM. The Ki on Glutamate receptor 1 [2] turned out to be 38 nM.
Take `CCCC(=O)N[C@@H](Cc1ccc(O)cc1)C(=O)NCCCCCNCCCCCCCCN`: the inhibition constant (Ki) turned out to be 37 nM on Glutamate receptor 1 [3], 2300 nM at Glutamate receptor 1 [4] and 330 nM at Glutamate receptor 1 [2]. Also, the 50% inhibitory concentration (IC50) in test [1] came to 160 nM.
Take `CCCC(=O)N[C@@H](Cc1ccc(O)cc1)C(=O)NCCCCCNCCCN`: the results for the Ki at Glutamate receptor 1 [3], on Glutamate receptor 1 [4] and at Glutamate receptor 1 [2] were 14 nM, 270 nM and 63 nM, respectively. Further, the IC50 in test [1] is 1100 nM.
`CCCC(=O)N[C@@H](Cc1ccc(O)cc1)C(=O)NCCCCCCCNCCCCCCN`: the IC50 in test [1] came out at 45 nM. For the same compound, the Ki at Glutamate receptor 1 [2] turned out to be 208 nM.
For the compound `CCCC(=O)N[C@@H](Cc1ccc(O)cc1)C(=O)NCCCCCNCCCCN`, the Ki at Glutamate receptor 1 [3] was 13 nM; on Glutamate receptor 1 [4], 450 nM; on Glutamate receptor 1 [2], 68 nM. For the same compound, the IC50 in test [1] was 283 nM.
Take `CCCC(=O)N[C@@H](Cc1ccc(O)cc1)C(=O)NCCCCCCCCNCCCN`: the half-inhibitory concentration (IC50) in test [1] was 39 nM. Further, at Glutamate receptor 1 [2], the Ki was 65 nM.
For `CCCC(=O)N[C@@H](Cc1ccc(O)cc1)C(=O)NCCCNCCCCCCCCN`, in that order: 248 nM and 350 nM.
Regarding `CCCC(=O)N[C@@H](Cc1ccc(O)cc1)C(=O)NCCCCCCNCCCCCCN`, the IC50 in test [1] was 270 nM. Moreover, the Ki at Glutamate receptor 1 [2] came out at 685 nM.
As to `CCCC(=O)N[C@@H](Cc1ccc(O)cc1)C(=O)NCCCCCNCCCCCCCN`, the Ki on Glutamate receptor 1 [3] was 10 nM; on Glutamate receptor 1 [4], 1100 nM; at Glutamate receptor 1 [2] it was 110 nM. Besides, the concentration for half-maximal inhibition (IC50) in test [1] was found to be 127 nM.
As for `CCCC(=O)N[C@@H](Cc1ccc(O)cc1)C(=O)NCCCNCCCCCCN`, the IC50 in test [1] amounted to 547 nM. Also, the Ki on Glutamate receptor 1 [2] came out at 126 nM.
As for `CCCC(=O)N[C@@H](Cc1ccc(O)cc1)C(=O)NCCCCCNCCCCCCCCCCCCN`, the Ki worked out at 77 nM on Glutamate receptor 1 [3], 3100 nM at Glutamate receptor 1 [4] and 480 nM on Glutamate receptor 1 [2].
With `CCCC(=O)N[C@@H](Cc1ccc(O)cc1)C(=O)NCCCCCNCCN`, the Ki on Glutamate receptor 1 [3] was 140 nM; at Glutamate receptor 1 [4] it was 1500 nM; at Glutamate receptor 1 [2], 410 nM. Further, the IC50 in test [1] came out at 12300 nM.
As for `CCCC(=O)N[C@@H](Cc1ccc(O)cc1)C(=O)NCCNCCCCCCN`, the IC50 in test [1] was determined as 310 nM. Moreover, the Ki at Glutamate receptor 1 [2] came out at 208 nM.
The matching figures for `CCCC(=O)N[C@@H](Cc1ccc(O)cc1)C(=O)NCCCCCCCCCNCCCCCCN`: 86 nM and 37 nM.
For `CCCC(=O)N[C@@H](Cc1ccc(O)cc1)C(=O)NCCCCNCCCCCCN`, in that order: 324 nM and 53 nM.
The matching figures for `CCCC(=O)N[C@@H](Cc1ccc(O)cc1)C(=O)NCCCCCCCCNCCCCCCN`: 25 nM and 77 nM.
For `CCCC(=O)N[C@@H](Cc1ccc(O)cc1)C(=O)NCCCCCNCCCCCN`, the Ki on Glutamate receptor 1 [3] stood at 13 nM; on Glutamate receptor 1 [4], 460 nM; on Glutamate receptor 1 [2], 95 nM. For the same compound, the IC50 in test [1] turned out to be 207 nM.
The matching figures for `CCCC(=O)N[C@@H](Cc1ccc(O)cc1)C(=O)NCCCCCNCCCCCCCCCN`: 65 nM, 5000 nM, 450 nM and 798 nM.
Regarding `CCCC(=O)N[C@@H](Cc1ccc(O)cc1)C(=O)NCCCCCCCNCCCCN`, the IC50 in test [1] is 138 nM. Moreover, the Ki on Glutamate receptor 1 [2] came out at 168 nM.
